# How the values were obtained:
# [1] = Analytical determination of active ingredient in the leachate (water, UV-Vis); type: physicochemical; conditions: active 5% in water
# Experimental: The active ingredient is added (5%) to required amount of water. After a certain amount of time, the leachate is collected through a filter and the same amount of water replaced. The amount of active ingredients of each leachate is determined analytically by UV-Vis.
# [2] = tested on: Escherichia coli ATCC 11229; assay: Antimicrobial activity (log reduction) on flexible PVC surface, Z 2801:2000; type: cell-based; conditions: 24 hrs incubation
# Experimental: (§1) The aqueous biocidal dispersion containing encapsulated biocide was prepared as described in example 19 to provide 20% BIT (prepared as described in Example 5). The dispersion was incorporated into flexible PVC using a Brabender. The plastic samples containing different BIT concentrations were tested according to the Japanese HS Z 2801:2000 entitled “Antimicrobial products-test for antimicrobial activity and efficacy.”
# (§2) Briefly, samples were inoculated on the surface with bacterial strains such as Escherichia coli ATCC 11229 or Staphylococcus aureus ATCC 6538. After 24 hrs of incusbation, the samples were examined to determine the number of bacterial count left on the surface of the sample. A reduction in the bacterial population or count was estimated based on the plate count of the control (untreated or blank) sample and treated samples. The results of this activity indicate that aqueous biocidal dispersion prepared according to the present invention provides better antibacterial activity through larger log reduction and is shown in Table 3.
# [3] = tested on: Staphylococcus aureus ATCC 6538; assay: as above; type: cell-based; conditions: 24 hrs incubation
# Experimental: as §1, §2
# [4] = Analytical determination of active ingredient leaching out of a paint film (UV-Visible); type: physicochemical; conditions: PVA paint film, total IPBC incorporated 2000 ppm
# Experimental: The active ingredient is added to PVA paint to a final concentration of 2000 ppm. Drawdown of the paint samples are prepared by casting a 3-mil film onto drawdown paperboard (Lanetta). The drawdown samples are allowed to dry at room temperature for 24 hrs. A sample of 2×6 cm is cut. The cut samples are then placed in 100 ml of water in a closed beaker for the different duration of time limits. At different time intervals the water is collected and replaced with the same amount of water. The quantity of the active ingredient present in each leachate is determined by UV-Visible spectroscopic method.
smiles,measurement,setting,value
"CN(C)C(=O)Nc1ccc(Cl)c(Cl)c1 [Non-encapsulated Diuron, Diuron]",Diuron in water (in ppm),[1]; leaching time 30 minutes,53.6 ppm
same,Diuron in water (in ppm),[1]; leaching time 2 hrs,51.4 ppm
same,Diuron in water (in ppm),[1]; leaching time 4 hrs,54.6 ppm
same,Diuron in water (in ppm),[1]; leaching time 20 hrs,52.0 ppm
"O=c1[nH]sc2ccccc12 [BIT, 1,2-benzisothiazoline-3-one]",Antimicrobial Activity (Log Reduction) E. coli,[2]; 100 ppm in flexible PVC,0.9
same,Antimicrobial Activity (Log Reduction) E. coli,[2]; 250 ppm in flexible PVC,2.5
same,Antimicrobial Activity (Log Reduction) S. aureus,[3]; 100 ppm in flexible PVC,0.2
same,Antimicrobial Activity (Log Reduction) S. aureus,[3]; 250 ppm in flexible PVC,0.6
"CCNc1nc(NC(C)(C)C)nc(SC)n1 [Non-encapsulated Terbutryn, Terbutryn]",Terbutryn in water (in ppm),[1]; leaching time 5 minutes,150 ppm
same,Terbutryn in water (in ppm),[1]; leaching time 1 hr,90 ppm
same,Terbutryn in water (in ppm),[1]; leaching time 24 hrs,79.8 ppm
"CCCCNC(=O)OCC#CI [Non-encapsulated IPBC, 3-iodo-2-propargyl butyl carbamate]",IPBC in water (in ppm),[1]; leaching time 5 minutes,356 ± 4 ppm
same,IPBC in water (in ppm),[1]; leaching time 1 hr,273 ± 10 ppm
same,IPBC in water (in ppm),[1]; leaching time 24 hrs,236 ± 22 ppm
same,IPBC (in ppm) leached from Paint film,[4]; leaching time 1 hr,1050 ppm
same,IPBC (in ppm) leached from Paint film,[4]; leaching time 3 hrs,102 ppm
same,IPBC (in ppm) leached from Paint film,[4]; leaching time 15 hrs,65 ppm
same,IPBC (in ppm) leached from Paint film,[4]; leaching time 48 hrs,78 ppm

# Source: US20120164203A1, “PROCESS FOR PREPARATION OF STABLE, MICROENCAPSULATED AND SUSTAINED RELEASE BIOCIDAL ACTIVES AND COMPOSITION THEREOF” (priority 2009, published 2012)
